Reference: paper PMC10167657, “Reaction Mechanism of Glycoside Hydrolase Family 116 Utilizes Perpendicular Protonation” (ACS Catalysis, 2023)

Biological target: T1, TxGH116 β-glucosidase (Thermoanaerobacterium xylanolyticum, UniProt F6BL85, D593N)
T1 construct: gene Thexy_2211; pET30a/TxGH116Δ1-18 (residues 1-18 removed), E. coli BL21(DE3), IMAC, tag cut with enterokinase, Superdex 200
Test: X-ray crystal structure, soaked crystal
Assay type: binding
Conditions: pH 5.5

[1] = 200 mM soak, subsites –1 and +1 (Michaelis complex)

T1 sequence (F6BL85 entry or part of it D593N): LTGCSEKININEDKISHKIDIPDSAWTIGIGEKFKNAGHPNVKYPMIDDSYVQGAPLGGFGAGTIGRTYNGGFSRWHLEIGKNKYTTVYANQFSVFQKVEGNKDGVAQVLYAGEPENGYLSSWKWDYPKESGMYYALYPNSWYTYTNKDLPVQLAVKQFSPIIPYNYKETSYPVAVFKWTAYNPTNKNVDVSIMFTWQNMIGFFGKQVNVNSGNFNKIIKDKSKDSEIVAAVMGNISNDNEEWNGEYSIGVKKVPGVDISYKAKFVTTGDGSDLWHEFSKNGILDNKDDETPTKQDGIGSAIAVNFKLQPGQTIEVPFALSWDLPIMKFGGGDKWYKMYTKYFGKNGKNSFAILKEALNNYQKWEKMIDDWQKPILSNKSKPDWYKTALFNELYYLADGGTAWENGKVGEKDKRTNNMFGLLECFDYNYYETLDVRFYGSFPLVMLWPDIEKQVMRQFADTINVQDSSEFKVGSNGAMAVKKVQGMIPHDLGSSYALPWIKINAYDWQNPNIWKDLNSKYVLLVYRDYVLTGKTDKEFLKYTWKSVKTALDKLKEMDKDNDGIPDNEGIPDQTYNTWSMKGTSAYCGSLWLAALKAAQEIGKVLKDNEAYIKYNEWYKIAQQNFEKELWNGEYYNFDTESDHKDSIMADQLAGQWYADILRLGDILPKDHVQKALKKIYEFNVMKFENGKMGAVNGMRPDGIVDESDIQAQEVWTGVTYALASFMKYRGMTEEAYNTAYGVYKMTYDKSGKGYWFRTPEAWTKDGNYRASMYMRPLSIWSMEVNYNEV

Row | SMILES | X-ray crystal structure, soaked crystal (covalent 2-deoxy-2-fluoroglucosyl-enzyme at nucleophile E441, 10 mM soak) | X-ray crystal structure, soaked crystal [1]
1 | O=[N+]([O-])c1ccc(O[C@@H]2O[C@H](CO)[C@@H](O)[C@H](O)[C@H]2F)c([N+](=O)[O-])c1 [2,4-dinitrophenyl 2-deoxy-2-fluroglucopyranoside] | The covalent complex of TxGH116 D593N with G2F exhibits an overall structure | 
2 | OC[C@H]1O[C@@H](O[C@H]2[C@H](O)[C@@H](O)C(O)O[C@@H]2CO)[C@H](O)[C@@H](O)[C@@H]1O (stereo partly drawn) [cellobiose] |  | The structure of TxGH116 D593N with cellobiose shows the same interactions
3 | OC[C@H]1O[C@@H](O[C@H]2[C@H](O)[C@@H](CO)OC(O)[C@@H]2O)[C@H](O)[C@@H](O)[C@@H]1O (stereo partly drawn) [laminaribiose] |  | The TxGH116 D593N variant with laminaribiose (Figure 2B) displays the glycosidic oxygen
